Calls of active or inactive are those of the source. The rule behind the calls is not given here.
Tested on: CCRIS mutagenicity, Ames/micronucleus/aberration tests
Assay: CCRIS mutagenicity studies
[1] = Test System: AMES SALMONELLA TYPHIMURIUM, Strain/Indicator: TA97, Metabolic Activation: NONE, Method: STANDARD PLATE
[2] = Test System: AMES SALMONELLA TYPHIMURIUM, Strain/Indicator: TA97, Metabolic Activation: RAT, LIVER, S-9, AROCLOR 1254, Method: STANDARD PLATE
[3] = Test System: AMES SALMONELLA TYPHIMURIUM, Strain/Indicator: TA98, Metabolic Activation: NONE, Method: STANDARD PLATE
[4] = Test System: AMES SALMONELLA TYPHIMURIUM, Strain/Indicator: TA98, Metabolic Activation: RAT, LIVER, S-9, AROCLOR 1254, Method: STANDARD PLATE
[5] = Test System: AMES SALMONELLA TYPHIMURIUM, Strain/Indicator: TA100, Metabolic Activation: NONE, Method: STANDARD PLATE
[6] = Test System: AMES SALMONELLA TYPHIMURIUM, Strain/Indicator: TA100, Metabolic Activation: RAT, LIVER, S-9, AROCLOR 1254, Method: STANDARD PLATE
[7] = Test System: AMES SALMONELLA TYPHIMURIUM, Strain/Indicator: TA1537, Metabolic Activation: NONE, Method: STANDARD PLATE
[8] = Test System: AMES SALMONELLA TYPHIMURIUM, Strain/Indicator: TA1537, Metabolic Activation: RAT, LIVER, S-9, AROCLOR 1254, Method: STANDARD PLATE
[9] = Test System: AMES SALMONELLA TYPHIMURIUM, Strain/Indicator: TA98, Metabolic Activation: NONE, Method: PREINCUBATION
[10] = Test System: AMES SALMONELLA TYPHIMURIUM, Strain/Indicator: TA100, Metabolic Activation: NONE, Method: PREINCUBATION
[11] = Test System: AMES SALMONELLA TYPHIMURIUM, Strain/Indicator: TA1535, Metabolic Activation: NONE, Method: STANDARD PLATE
[12] = Test System: AMES SALMONELLA TYPHIMURIUM, Strain/Indicator: TA1535, Metabolic Activation: RAT, LIVER, S-9, AROCLOR 1254, Method: STANDARD PLATE
[13] = Test System: AMES SALMONELLA TYPHIMURIUM, Strain/Indicator: TA1538, Metabolic Activation: NONE, Method: STANDARD PLATE

Measured: mutagenic call

Cc1c(N)c(=O)n(-c2ccccc2)n1C
active: [1] active; positive | [2] active; positive | Test System: AMES SALMONELLA TYPHIMURIUM, Strain/Indicator: TA97A, Metabolic Activation: RAT, LIVER, S-9, AROCLOR 1254, Method: STANDARD PLATE active; positive
inactive: [3] inactive; negative | [4] inactive; negative | [5] inactive; negative | [6] inactive; negative | Test System: AMES SALMONELLA TYPHIMURIUM, Strain/Indicator: TA102, Metabolic Activation: NONE, Method: STANDARD PLATE inactive; negative | Test System: AMES SALMONELLA TYPHIMURIUM, Strain/Indicator: TA102, Metabolic Activation: RAT, LIVER, S-9, AROCLOR 1254, Method: STANDARD PLATE inactive; negative | Test System: AMES SALMONELLA TYPHIMURIUM, Strain/Indicator: TA104, Metabolic Activation: NONE, Method: STANDARD PLATE inactive; negative | Test System: AMES SALMONELLA TYPHIMURIUM, Strain/Indicator: TA104, Metabolic Activation: RAT, LIVER, S-9, AROCLOR 1254, Method: STANDARD PLATE inactive; negative | [7] inactive; negative | [8] inactive; negative

C=C(C)CN(CC)c1c([N+](=O)[O-])cc(C(F)(F)F)cc1[N+](=O)[O-]
active: Test System: Ames Salmonella typhimurium, Strain/Indicator: TA100, Metabolic Activation: Rat, Liver, S-9, Aroclor, Method: Plate incorporation active; positive (weak response) | Test System: Ames Salmonella typhimurium, Strain/Indicator: TA1535, Metabolic Activation: Rat, Liver, S-9, Aroclor, Method: Plate incorporation active; positive (weak response)
inactive: End Point: In vitro chromasomal aberrations, Test System: Chinese hamster ovary (CHO) cells, Metabolic Activation: None inactive; negative | Test System: Ames Salmonella typhimurium, Strain/Indicator: TA98, Metabolic Activation: None, Method: Plate incorporation inactive; negative | Test System: Ames Salmonella typhimurium, Strain/Indicator: TA98, Metabolic Activation: Rat, Liver, S-9, Aroclor, Method: Plate incorporation inactive; negative | Test System: Ames Salmonella typhimurium, Strain/Indicator: TA100, Metabolic Activation: None, Method: Plate incorporation inactive; negative | Test System: Ames Salmonella typhimurium, Strain/Indicator: TA1535, Metabolic Activation: None, Method: Plate incorporation inactive; negative | Test System: Ames Salmonella typhimurium, Strain/Indicator: TA1537, Metabolic Activation: None, Method: Plate incorporation inactive; negative | Test System: Ames Salmonella typhimurium, Strain/Indicator: TA1537, Metabolic Activation: Rat, Liver, S-9, Aroclor, Method: Plate incorporation inactive; negative | Test System: Ames Salmonella typhimurium, Strain/Indicator: TA1538, Metabolic Activation: None, Method: Plate incorporation inactive; negative | Test System: Ames Salmonella typhimurium, Strain/Indicator: TA1538, Metabolic Activation: Rat, Liver, S-9, Aroclor, Method: Plate incorporation inactive; negative

CN1C[C@@H](O)c2cc3c(c4c2[C@H]1Cc1ccccc1-4)OCO3
active: Test System: AMES SALMONELLA TYPHIMURIUM, Strain/Indicator: TA98, Metabolic Activation: RAT, LIVER, S-9, PHENOBARBITAL AND BETA-NAPHTHOFLAVONE, Method: PREINCUBATION active; positive | Test System: AMES SALMONELLA TYPHIMURIUM, Strain/Indicator: TA100, Metabolic Activation: RAT, LIVER, S-9, PHENOBARBITAL AND BETA-NAPHTHOFLAVONE, Method: PREINCUBATION active; positive

NCCCNCCSP(=O)(O)O
inactive: End Point: In vivo micronucleus, Test System: Bone marrow polychromatic erythrocytes, Species: Mouse, Strain/Sex: C57BL/6J/Male, Route: Intraperitoneal inactive; negative (significant increase in pce/nce ratio only when administered before ga

O=C1C=CC(=O)C(c2ccccc2)=C1
inactive: [9] inactive; negative | Test System: AMES SALMONELLA TYPHIMURIUM, Strain/Indicator: TA98, Metabolic Activation: RAT, LIVER, S-9, PHENOBARBITAL AND 5,6-BENZOFLAVONE, Method: PREINCUBATION inactive; negative | [10] inactive; negative | Test System: AMES SALMONELLA TYPHIMURIUM, Strain/Indicator: TA100, Metabolic Activation: RAT, LIVER, S-9, PHENOBARBITAL AND 5,6-BENZOFLAVONE, Method: PREINCUBATION inactive; negative | Test System: AMES SALMONELLA TYPHIMURIUM, Strain/Indicator: TA102, Metabolic Activation: NONE, Method: PREINCUBATION inactive; negative | Test System: AMES SALMONELLA TYPHIMURIUM, Strain/Indicator: TA102, Metabolic Activation: RAT, LIVER, S-9, PHENOBARBITAL AND 5,6-BENZOFLAVONE, Method: PREINCUBATION inactive; negative | Test System: AMES SALMONELLA TYPHIMURIUM, Strain/Indicator: TA104, Metabolic Activation: NONE, Method: PREINCUBATION inactive; negative | Test System: AMES SALMONELLA TYPHIMURIUM, Strain/Indicator: TA104, Metabolic Activation: RAT, LIVER, S-9, PHENOBARBITAL AND 5,6-BENZOFLAVONE, Method: PREINCUBATION inactive; negative | Test System: AMES SALMONELLA TYPHIMURIUM, Strain/Indicator: TA2637, Metabolic Activation: NONE, Method: PREINCUBATION inactive; negative | Test System: AMES SALMONELLA TYPHIMURIUM, Strain/Indicator: TA2637, Metabolic Activation: RAT, LIVER, S-9, PHENOBARBITAL AND 5,6-BENZOFLAVONE, Method: PREINCUBATION inactive; negative | Test System: CHINESE HAMSTER V-79, Strain/Indicator: V-79 (HGPRT)/6-THIOGUANINE, Metabolic Activation: NONE inactive; negative

CN1CCC=C2c3nc(N)sc3CCC21 (stereo not given)
active: [4] active; positive | [6] active; positive
inactive: [3] inactive; negative | [5] inactive; negative | [11] inactive; negative | [12] inactive; negative | [7] inactive; negative | [8] inactive; negative | [13] inactive; negative

O=C(O)C[C@H](NC(=O)COc1cc(Cl)c(Cl)cc1Cl)C(=O)O
inactive: [1] inactive; negative | [2] inactive; negative | [3] inactive; negative | [4] inactive; negative | [5] inactive; negative | [6] inactive; negative | [11] inactive; negative | [12] inactive; negative | [13] inactive; negative | Test System: AMES SALMONELLA TYPHIMURIUM, Strain/Indicator: TA1538, Metabolic Activation: RAT, LIVER, S-9, AROCLOR 1254, Method: STANDARD PLATE inactive; negative

C=CC(O)C=C
inactive: [9] inactive; negative | Test System: AMES SALMONELLA TYPHIMURIUM, Strain/Indicator: TA98, Metabolic Activation: S-9, Method: PREINCUBATION inactive; negative | [10] inactive; negative | Test System: AMES SALMONELLA TYPHIMURIUM, Strain/Indicator: TA1535, Metabolic Activation: NONE, Method: PREINCUBATION inactive; negative | Test System: AMES SALMONELLA TYPHIMURIUM, Strain/Indicator: TA1535, Metabolic Activation: S-9, Method: PREINCUBATION inactive; negative | Test System: E.COLI, Strain/Indicator: WP2UVRA/PKM101, Metabolic Activation: NONE, Method: PREINCUBATION inactive; negative | Test System: E.COLI, Strain/Indicator: WP2UVRA/PKM101, Metabolic Activation: S-9, Method: PREINCUBATION inactive; negative
active: Test System: AMES SALMONELLA TYPHIMURIUM, Strain/Indicator: TA100, Metabolic Activation: S-9, Method: PREINCUBATION active; positive
